In patent US9717742B2, “Oxysterol analogue OXY133 induces osteogenesis and hedgehog signaling and inhibits adipogenesis” (The Regents of the University of California, priority 2012, dated 2017):

Columns and labels:
[1] = test system: M2-10B4 (M2) bone marrow stromal cells; experiment: Alkaline phosphatase (ALP) activity assay on whole cell extracts, M2 cells; format: cell-based, mouse; settings: data not shown
[2] = test system: Lewis rats; settings: prior studies (15), 4 weeks; cited from earlier work
[3] = test system: 8×-Gli luciferase reporter (Hedgehog signaling); experiment: Gli-dependent luciferase reporter assay in C3H cells; format: cell-based, mouse; settings: 48 hours
Protocol: After 4 days ALP activity, and after 7 days the expression of osteogenic genes ALP, BSP, and OSX was measured by quantitative real-time PCR (p<0.001 for control vs. Oxy133, and for Oxy133 vs. Oxy133+Cyc for ALP activity and for the expression of all genes shown). […] (p<0.001 for control vs. Oxy133 at 100 nM, 250 nM, and 1 μM Oxy133). (FIG. 4C) The amount of YFP-Smo captured by 20S beads or control beads was compared in samples containing either no competitor or 50 μM of a free competitor sterol (20S, Oxy133 or Oxy16). The YFP-Smo captured by the beads was measured by Western blot (top) and plotted (bottom) relative to the amount captured in the binding reaction with no competitor.
Cells at 70% confluence in 24-well plates were transiently transfected with Gli-dependent firefly luciferase and Renilla luciferase vectors as we have previously described (17, 18). […] Luciferase activity was assessed using the Dual Luciferase Reporter Assay System (Promega Corporation, Madison, Wis.) according to manufacturer's instructions after cells were treated for 48 hours.

[4] = test system: Lewis rats; experiment: Posterolateral intertransverse process spinal fusion at L4-L5 in rats; format: in vivo, rat; settings: for Fusion Rates (%) Manual Palpation / Fusion Rates (%) Micro-CT / Fusion Rates (%) X-ray: at sacrifice (8 weeks); for bilateral fusion on radiographs: four weeks; for trabecular thickness: micro-CT, 8 weeks
Protocol: Thirty-eight 8-week-old male Lewis rats were purchased from Charles River Laboratories (Wilmington, Mass.) and were maintained and housed at the UCLA vivarium in accordance with regulations set forth by the UCLA Office of Protection of Research Subjects. The study was performed under a protocol approved by the UCLA Animal Research Committee (ARC).
Animals were pre-medicated with sustained release buprenorphine thirty minutes prior to surgery and anesthetized with 2% isoflurane administered in oxygen (1 L/min). The surgical site was shaved and disinfected with Betadine and 70% ethanol. Posterolateral intertransverse process spinal fusion at L4-L5 was performed as in prior studies (21, 22). The L6 vertebral body was identified using the iliac crest as a landmark. A 4-cm longitudinal midline incision was made through the skin and subcutaneous tissue over L4-L5 down to the lumbodorsal fascia. A 2-cm longitudinal paramedial incision was then made in the paraspinal muscles bilaterally to expose the transverse processes of L4-L5, which were decorticated with a high-speed burr. The surgical site was then irrigated with sterile saline, and 5 mm×5 mm×13 mm pieces of collagen sponge (Helistat, Integra Life Sciences) containing dimethyl sulfoxide (DMSO) control, rhBMP-2, or Oxy133 were placed bilaterally, with each implant spanning the transverse processes. The implants were then covered with the overlying paraspinal muscles and the lumbodorsal fascia and skin were closed with 4-0 Prolene sutures (Ethicon, Inc., Somerville, N.J.). Animals were allowed to ambulate, eat, and drink ad libitum immediately after surgery.
Posteroanterior radiographs of the lumbar spine were taken on each animal at 4, 6, and 8 weeks after surgery using a Faxitron LX60 cabinet radiography system and evaluated blindly by two independent observers employing the following standardized scale: 0, no fusion; 1, unilateral fusion; and 2, complete bilateral fusion. The scores from the observers were added together and only a score of 4 was considered as complete fusion.
Eight weeks after surgery, animals were euthanized and the spines were surgically removed and evaluated by two blinded independent observers for motion between levels. Nonunion was recorded if motion was observed between the facets or transverse processes on either side. Complete fusion was recorded if no motion was observed bilaterally. Spines were scored as either fused or not fused. Unanimous agreement was required to consider complete fusion.
Each removed spine was analyzed by high resolution micro-computed tomography (micro-CT), using a SkyScan 1172 scanner (SkyScan, Belgium) with a voxel isotropic resolution of 20 μm and an X-ray energy of 55 kVp and […] to further assess the fusion rate and observe the fusion mass as we have previously reported (15). Three hundred and sixty projections were acquired over an angular range of 180° with steps of 0.5 with an exposure time of 220 msec/slice. Five frames were averaged at each rotation step to get better signal to noise ratio. A 0.5 mm aluminum filter was used to narrow down the X-ray beam frequency in order to minimize beam hardening artifact. Virtual image slices were reconstructed using the cone-beam reconstruction software version 2.6 based on the Feldkamp algorithm (SkyScan). These settings produced serial cross-sectional 1024×1024 pixel images. Sample re-orientation and 2D visualization were performed using DataViewer (SkyScan). 3D visualization was performed using Dolphin Imaging version 11 (Dolphin Imaging & Management Solutions, Chatsworth, Calif.). Fusion was defined as the bilateral presence of bridging bone between the L4 and L5 transverse processes. The reconstructed images were judged to be fused or not fused by two experienced independent observers.

CC1=C2C[C@H]3[C@@H](CC=C4C[C@@H](O)CC[C@@]43C)[C@@H]2CC[C@]12O[C@@H]1C[C@H](C)CN[C@H]1[C@H]2C [Cyclopamine]
inhibition of Oxy133-induced ALP activity and expression of osteogenic markers [1]: completely inhibited

CC(C)CCCC(C)(O)C1CCC2C3CC(O)C4CC(O)CCC4(C)C3CCC21C (stereo not shown) [Oxy34]
fusion at the 4 week time point in prior studies [2]: no fusion

C=C(C)CCC[C@](C)(O)[C@H]1CC[C@H]2[C@@H]3C[C@H](O)[C@H]4C[C@@H](O)CC[C@]4(C)[C@H]3CC[C@@]21C [Oxy49]
fusion at the 4 week time point in prior studies [2]: no fusion

CCCCCC[C@](C)(O)[C@H]1CC[C@H]2[C@@H]3C[C@H](O)[C@H]4C[C@@H](O)CC[C@]4(C)[C@H]3CC[C@@]21C [Oxy133, (3S,5S,6S,8R,9S,10R,13S,14S,17S) 17-((S)-2-hydroxyoctan-2-yl)-10,13-dimethylhexadecahydro-1H-cyclopenta[a]phenanthrene-3,6-diol]
induction of Gli-dependent reporter activity ([3]; 100 nM): 5 fold | induction of Gli-dependent reporter activity ([3]; at 1 Oxy133 (unit not given)): 17 fold | Fusion Rates (%) Manual Palpation ([4]; Oxy133 0.2 mg): 0% | Fusion Rates (%) Micro-CT ([4]; Oxy133 0.2 mg): 0% | Fusion Rates (%) X-ray ([4]; Oxy133 0.2 mg): 0% | bilateral fusion, micro-CT ([4]; Oxy133 2 mg): 4/8 | bilateral fusion confirmed on manual palpation ([4]; Oxy133 2 mg, after sacrifice): 4/8 | Fusion Rates (%) Manual Palpation ([4]; Oxy133 2 mg): 50% | Fusion Rates (%) Micro-CT ([4]; Oxy133 2 mg): 50% | Fusion Rates (%) X-ray ([4]; Oxy133 2 mg): 50% | fusion on radiographs ([4]; Oxy133 2 mg, eight weeks): 4/8 | bilateral fusion on radiographs ([4]; Oxy133 2 mg): 3/8 | trabecular thickness ([4]; Oxy133 2 mg): 134.008 | bilateral fusion by manual assessment ([4]; Oxy133 20 mg, after sacrifice): 6/7 | Fusion Rates (%) Manual Palpation ([4]; Oxy133 20 mg): 86% | Fusion Rates (%) Micro-CT ([4]; Oxy133 20 mg): 100% | Fusion Rates (%) X-ray ([4]; Oxy133 20 mg): 100% | bilateral fusion on radiographs ([4]; Oxy133 20 mg): 6/7 | trabecular thickness ([4]; Oxy133 20 mg): 124.737
